{
  "source": "ChEMBL document CHEMBL3638391",
  "about": "“Flap modulators” (2015)",
  "target": "T1, Arachidonate 5-lipoxygenase-activating protein (Homo sapiens, UniProt P20292)",
  "T1 sequence (P20292 whole entry)": "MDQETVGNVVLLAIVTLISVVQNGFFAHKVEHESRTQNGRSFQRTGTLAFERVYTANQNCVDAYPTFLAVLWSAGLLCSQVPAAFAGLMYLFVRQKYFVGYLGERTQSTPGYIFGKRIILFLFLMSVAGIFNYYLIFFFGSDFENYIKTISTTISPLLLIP",
  "assay": "Homogeneous Time Resolved Fluorescence Assay: The assay below is used to test the modulatory activity of compounds against FLAP. Human and mouse FLAP-encoding DNA was amplified by polymerase chain reaction and cloned into pFastBacl (Invitrogen) with a NH2-terminal 6-His tag for expression in Spodoptera frugiperda (Sf-9) cells. FLAP-containing membranes were prepared as was a FITC-labeled FLAP …",
  "description": "Homogeneous Time Resolved Fluorescence Assay: The assay below is used to test the modulatory activity of compounds against FLAP. Human and mouse FLAP-encoding DNA was amplified by polymerase chain reaction and cloned into pFastBacl (Invitrogen) with a NH2-terminal 6-His tag for expression in Spodoptera frugiperda (Sf-9) cells. FLAP-containing membranes were prepared as was a FITC-labeled FLAP modulator [5-[({[2-(2-{3-[3-(tert-Butylsulfanyl)-1-(4-chlorobenzyl)-5-(quinolin-2-ylmethoxy)-1H-indol-2-yl]-2,2-dimethylpropanoyl}hydrazino)-2-oxoethyl]sulfanyl}acetyl)amino]-2-(6-hydroxy-3-oxo-3H-xanthen-9-yl)benzoic acid]. The FLAP binding assay is performed in HTRF format (homogeneous time resolved fluorescence).",
  "data": [
    {"smiles": "C[C@@H]([C@@H](O)c1ccccc1)N(C)S(=O)(=O)c1ccccc1-c1ccc(-c2ccc(N)nc2)c(F)c1", "values": [
      {"measurement": "Ki", "value": 3.2, "unit": "nM"}
    ]}
  ]
}
